Test results: ChEMBL document CHEMBL3621169, “Synthesis of tetrazole compounds as a novel type of potential antimicrobial agents and their synergistic effects with clinical drugs and interactions with calf thymus DNA” (Medchemcomm, 2015)
≈ marks a conversion by molar mass, not a printed value. Calls of active or inactive are those of the source. The calls are words filed in the database; no cut-off is given here.

Experiments:
[1] = test system: Bacillus spizizenii; assay: Antibacterial activity against Bacillus subtilis ATCC 6633 by micro dilution checkerboard method in the presence of chloromycin; assay type: functional
[2] = test system: Micrococcus luteus; assay: Antibacterial activity against Micrococcus luteus ATCC 4698 by micro dilution checkerboard method in the presence of chloromycin; assay type: functional
[3] = test system: Bacillus sp.; assay: Antibacterial activity against Bacillus proteus ATCC 13315 by micro dilution checkerboard method in the presence of chloromycin; assay type: functional
[4] = test system: Escherichia coli; assay: Antibacterial activity against Escherichia coli DH52 by micro dilution checkerboard method in the presence of chloromycin; assay type: functional
[5] = test system: Pseudomonas aeruginosa; assay: Antibacterial activity against Pseudomonas aeruginosa ATCC 27853 by micro dilution checkerboard method in the presence of chloromycin; assay type: functional
[6] = test system: Shigella dysenteriae; assay: Antibacterial activity against Shigella dysenteriae ATCC 51252 by micro dilution checkerboard method in the presence of chloromycin; assay type: functional
[7] = test system: Staphylococcus aureus; assay: Antibacterial activity against Staphylococcus aureus ATCC 25923 by micro dilution checkerboard method in the presence of norfloxacin; assay type: functional
[8] = test system: Staphylococcus aureus; assay: Antibacterial activity against methicillin-resistant Staphylococcus aureus N315 by micro dilution checkerboard method in the presence of norfloxacin; assay type: functional
[9] = test system: Bacillus spizizenii; assay: Antibacterial activity against Bacillus subtilis ATCC 6633 by micro dilution checkerboard method in the presence of norfloxacin; assay type: functional
[10] = test system: Micrococcus luteus; assay: Antibacterial activity against Micrococcus luteus ATCC 4698 by micro dilution checkerboard method in the presence of norfloxacin; assay type: functional
[11] = test system: Bacillus sp.; assay: Antibacterial activity against Bacillus proteus ATCC 13315 by micro dilution checkerboard method in the presence of norfloxacin; assay type: functional
[12] = test system: Escherichia coli; assay: Antibacterial activity against Escherichia coli DH52 by micro dilution checkerboard method in the presence of norfloxacin; assay type: functional
[13] = test system: Pseudomonas aeruginosa; assay: Antibacterial activity against Pseudomonas aeruginosa ATCC 27853 by micro dilution checkerboard method in the presence of norfloxacin; assay type: functional
[14] = test system: Shigella dysenteriae; assay: Antibacterial activity against Shigella dysenteriae ATCC 51252 by micro dilution checkerboard method in the presence of norfloxacin; assay type: functional
[15] = test system: Candida albicans; assay: Antifungal activity against Candida albicans ATCC 90029 by micro dilution checkerboard method in the presence of fluconazole; assay type: functional
[16] = test system: Candida; assay: Antifungal activity against Candida mycoderma by micro dilution checkerboard method in the presence of fluconazole; assay type: functional
[17] = test system: Cyberlindnera jadinii; assay: Antifungal activity against Candida utilis ATCC 9950 by micro dilution checkerboard method in the presence of fluconazole; assay type: functional
[18] = test system: Aspergillus flavus; assay: Antifungal activity against Aspergillus flavus by micro dilution checkerboard method in the presence of fluconazole; assay type: functional
[19] = Ionization constant, pKa of the compound by UV spectroscopy; assay type: physicochemical
[20] = n-octanol/water partition coefficient, log P of the compound at 25 deg C after 24 hrs by saturation shake flask based UV spectroscopy; assay type: physicochemical
[21] = test system: Calf thymus DNA; assay: Binding affinity to calf thymus DNA by UV-visible spectroscopy; assay type: nucleic-acid assay; details: Bos taurus
[22] = test system: Calf thymus DNA; assay: Competitive binding affinity to calf thymus DNA by UV-visible spectroscopy in presence of neutral red; assay type: nucleic-acid assay; details: Bos taurus
[23] = test system: Staphylococcus aureus; assay: Antibacterial activity against Staphylococcus aureus ATCC 25923 after 24 hrs by micro broth dilution method; assay type: functional; details: ATCC 25923, 24 h
[24] = test system: Staphylococcus aureus; assay: Antibacterial activity against methicillin-resistant Staphylococcus aureus N315 after 24 hrs by micro broth dilution method; assay type: functional; details: N315, 24 h
[25] = test system: Bacillus spizizenii; assay: Antibacterial activity against Bacillus subtilis ATCC 6633 after 24 hrs by micro broth dilution method; assay type: functional; details: ATCC 6633, 24 h
[26] = test system: Micrococcus luteus; assay: Antibacterial activity against Micrococcus luteus ATCC 4698 after 24 hrs by micro broth dilution method; assay type: functional; details: ATCC 4698, 24 h
[27] = test system: Bacillus sp.; assay: Antibacterial activity against Bacillus proteus ATCC 13315 after 24 hrs by micro broth dilution method; assay type: functional; details: Bacillus sp. (in: firmicutes), ATCC 13315, 24 h
[28] = test system: Escherichia coli; assay: Antibacterial activity against Escherichia coli DH52 after 24 hrs by micro broth dilution method; assay type: functional; details: DH52, 24 h
[29] = test system: Pseudomonas aeruginosa; assay: Antibacterial activity against Pseudomonas aeruginosa ATCC 27853 after 24 hrs by micro broth dilution method; assay type: functional; details: ATCC 27853, 24 h
[30] = test system: Shigella dysenteriae; assay: Antibacterial activity against Shigella dysenteriae ATCC 51252 after 24 hrs by micro broth dilution method; assay type: functional; details: ATCC 51252, 24 h
[31] = test system: Candida albicans; assay: Antifungal activity against Candida albicans ATCC 90029 after 24 hrs by micro broth dilution method; assay type: functional; details: ATCC 90029, 24 h
[32] = test system: Cyberlindnera jadinii; assay: Antifungal activity against Candida utilis ATCC 9950 after 24 hrs by micro broth dilution method; assay type: functional; details: Williopsis jadinii, ATCC 9950, 24 h
[33] = test system: Candida; assay: Antifungal activity against Candida mycoderma after 24 hrs by micro broth dilution method; assay type: functional
[34] = test system: Aspergillus flavus; assay: Antifungal activity against Aspergillus flavus after 24 hrs by micro broth dilution method; assay type: functional
[35] = test system: Staphylococcus aureus; assay: Antibacterial activity against Staphylococcus aureus ATCC 25923 by micro dilution checkerboard method in the presence of chloromycin; assay type: functional
[36] = test system: Staphylococcus aureus; assay: Antibacterial activity against methicillin-resistant Staphylococcus aureus N315 by micro dilution checkerboard method in the presence of chloromycin; assay type: functional
[37] = Bacillus sp. (in: firmicutes), ATCC 13315
[38] = Pseudomonas aeruginosa, ATCC 27853
[39] = Staphylococcus aureus, ATCC 25923

Clc1ccccc1CN(Cc1nnn[nH]1)c1ccccc1
fractional inhibitory concentration index (FICI) [1]: 0.375
MIC ([1]; Bacillus spizizenii, ATCC 6633): 16 µg/mL
fractional inhibitory concentration index (FICI) [2]: 0.5
MIC ([2]; Micrococcus luteus, ATCC 4698): 8 µg/mL
fractional inhibitory concentration index (FICI) [3]: 0.75
MIC [3, 37]: 32 µg/mL
fractional inhibitory concentration index (FICI) [4]: 0.75
MIC ([4]; Escherichia coli, DH52): 16 µg/mL
fractional inhibitory concentration index (FICI) [5]: 0.5
MIC [5, 38]: 16 µg/mL
fractional inhibitory concentration index (FICI) [6]: 0.5
MIC ([6]; Shigella dysenteriae, ATCC 51252): 8 µg/mL
fractional inhibitory concentration index (FICI) [7]: 0.5
MIC [7, 39]: 16 µg/mL
fractional inhibitory concentration index (FICI) [8]: 0.75
MIC ([8]; Staphylococcus aureus, N315): 8 µg/mL
fractional inhibitory concentration index (FICI) [9]: 0.625
MIC ([9]; Bacillus spizizenii, ATCC 6633): 8 µg/mL
fractional inhibitory concentration index (FICI) [10]: 0.75
MIC ([10]; Micrococcus luteus, ATCC 4698): 8 µg/mL
fractional inhibitory concentration index (FICI) [11]: 0.5
MIC [11, 37]: 16 µg/mL
fractional inhibitory concentration index (FICI) [12]: 0.625
MIC ([12]; Escherichia coli, DH52): 8 µg/mL
fractional inhibitory concentration index (FICI) [13]: 0.75
MIC [13, 38]: 16 µg/mL
MIC [14]: 4 µg/mL
fractional inhibitory concentration index (FICI) [15]: 0.75
MIC ([15]; Candida albicans, ATCC 90029): 2 µg/mL
fractional inhibitory concentration index (FICI) [16]: 0.5
MIC ([16]; Candida): 2 µg/mL
fractional inhibitory concentration index (FICI) [17]: 0.5
MIC ([17]; Williopsis jadinii, ATCC 9950): 4 µg/mL
fractional inhibitory concentration index (FICI) [18]: 0.5
MIC ([18]; Aspergillus flavus): 4 µg/mL
pKa [19]: 4.34
logP at 24 h [20]: 1.09
Activity [21]: Dose-dependent effect
K [21]: 4.16 ×10⁴ L/mol
Activity [22]: Active
MIC [23]: 32 µg/mL (≈ 107 µM)
MIC [24]: 32 µg/mL (≈ 107 µM)
MIC [25]: 16 µg/mL (≈ 53.4 µM)
MIC [26]: 32 µg/mL (≈ 107 µM)
MIC [27]: 16 µg/mL (≈ 53.4 µM)
MIC [28]: 16 µg/mL (≈ 53.4 µM)
MIC [29]: 16 µg/mL (≈ 53.4 µM)
MIC [30]: 32 µg/mL (≈ 107 µM)
MIC [31]: 8 µg/mL (≈ 26.7 µM)
MIC [32]: 4 µg/mL (≈ 13.3 µM)
MIC [33]: 4 µg/mL (≈ 13.3 µM)
MIC [34]: 8 µg/mL (≈ 26.7 µM)
fractional inhibitory concentration index (FICI) [35]: 0.75
MIC [35, 39]: 16 µg/mL
fractional inhibitory concentration index (FICI) [36]: 0.5
MIC ([36]; Staphylococcus aureus, N315): 8 µg/mL
